SMILES strings stand for the structures.

The first assay has as its target T1, ATX (Homo sapiens, UniProt Q13822).
T1 construct: conditioned serum-free medium (CCM) from MDA-MB-435 cells as the source of ATX; endogenous in cells; host or cells: MDA-MB-435 cells (about 10x concentrated conditioned serum-free medium)
As to the kind of experiment: ATX inhibition assay (FS-3 substrate). The format is biochemical. As to conditions: Calculated IC50 data for the 30 active compounds; FS-3 substrate. In outline:
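Conditioned serum-free medium from MDA-MB-435 cells served as the ATX source. FS-3 hydrolysis was followed by fluorescence (ex 485/em 528 nm) at 37 °C, read every minute, in Tris pH 8.0 buffer with Ca2+, Mg2+ and 30 μM fatty-acid-free BSA. Readings were blank-subtracted without medium and normalized to vehicle.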
On to `Nc1c(N=Nc2ccc([N+](=O)[O-])cc2)c(S(=O)(=O)O)cc2cc(S(=O)(=O)O)c(N=Nc3ccc(-c4ccc(N=Nc5ccc(O)cc5)cc4)cc3)c(O)c12.[Na+]` [compound 7234], for which the IC50 is 7.02 µM.

The same assay, now with this note: preliminary screen; FS-3 hydrolysis at one hour, normalized to vehicle control, mean±S.D.; same values given at 10 μM in Table 5.
Consider `Nc1c(N=Nc2ccc([N+](=O)[O-])cc2)c(S(=O)(=O)O)cc2cc(S(=O)(=O)O)c(N=Nc3ccc(-c4ccc(N=Nc5ccc(O)cc5)cc4)cc3)c(O)c12.[Na+]` [compound 7234], for which the “% Response” value turned out to be 49 ± 6.1%.

Consider `O=C(/C=C/c1ccc(O)c(O)c1)NCC(=O)NC(Cc1ccccc1)C(=O)O` (centres unmarked) [compound 332542], for which the “% Response” value is 96 ± 3.7%. Consider `Nc1ccc(C(=O)Nc2ccc(NC(=O)Nc3ccc(NC(=O)c4ccc(N)cc4)c(S(=O)(=O)O)c3)cc2S(=O)(=O)O)cc1.[Na+]` [compound 71960], for which the “% Response” value stood at 88 ± 5.3%. With `Cc1ccc(Nc2ccc(Nc3ccc(C)cc3S(=O)(=O)[O-])c3c2C(=O)c2ccccc2C3=O)c(S(=O)(=O)[O-])c1.[Na+].[Na+]` [compound 7795], the “% Response” value is 99 ± 5.0%.

For the compound `O=C(Nc1ccc(S(=O)(=O)c2ccc(NC(=O)Nc3ccc4cc(S(=O)(=O)O)ccc4c3)cc2)cc1)Nc1ccc2cc(S(=O)(=O)O)ccc2c1.[Na+]` [compound 12149], the “% Response” value was 57 ± 6.5%. Take `Cc1cc(N=Nc2ccc(S(=O)(=O)[O-])cc2)c(N)c(N=Nc2ccc(S(=O)(=O)[O-])cc2)c1N.[Na+].[Na+]` [compound 65540]: the “% Response” value was determined as 71 ± 4.4%. Take `CC1=NN(c2ccc(/C=C/c3ccc(NC(=O)Nc4ccc(/C=C/c5ccc(N6N=C(C)C(N=Nc7ccccc7C(=O)O)C6=O)cc5S(=O)(=O)O)c(S(=O)(=O)O)c4)cc3S(=O)(=O)O)c(S(=O)(=O)O)c2)C(=O)C1N=Nc1ccccc1C(=O)O.[Na+]` (centres unmarked) [compound 34937]: the “% Response” value came out at 87 ± 3.1%.

By IC50 is commonly meant the concentration needed to halve the response being measured.

The record behind these values is patent publication US8343934B2, “Diverse lead compound autotaxin inhibitors” (University of Memphis, priority 2009, dated 2013).
